In one data set the test system is cholestatic disorders. As to conditions: cited from earlier work.
A further data set has as its system hepatic mitochondria. Description: Lipid-conjugated dienes of hepatic mitochondria (lipid peroxidation). The data set is classed as in vivo, male Sprague-Dawley rats. The following applies: for Lipid-conjugated dienes: 4 h. Here is the method: Hepatic Mitochondria Isolation
Mitochondria were isolated from 10 grams of fresh liver from individual rats by a modification of a previously described method^27. Briefly, the liver was gently homogenized in a loose-fitting Potter-Elvehjm homogenizer in buffer containing 225 mM mannitol, 70 mM sucrose, 3 mM KH2 PO4, 2mM EDTA, 0.1% BSA, 5 mM MgCl2 (pH 7.0), filtered through cheesecloth and centrifuged at 400g×10 minutes. The supernatant was centrifuged at 10,000g for 10 minutes. The supernatant was aspirated and the pellet resuspended and centrifuged at 10,000g for 10 minutes. The resulting mitochondrial pellet was resuspended in 15 ml of buffer, divided into three tubes and added to digitonin (Sigma Chemical Company, St Louis, Mo., 0.29 mg for each gram of original liver) on wet ice×20 minutes, in order to minimize any contamination by lysosomes^28. The resulting mitochondrial preparation was washed two times in the original buffer and centrifuged at 10,000g for 10 minutes. Samples of the pellet were taken for enzyme marker analysis. Two more washes were then performed using a buffer containing 50 mM MOPS/100 mM KCI, yielding the final mitochondrial pellet.
Fresh mitochondria were analyzed for lipid peroxidation as an index of oxidant damage by the lipid-conjugated diene method of Recknagel and Ghoshal^35 with the modification of Bacon et al^36. Briefly, lipids were extracted from mitochondria pellets with chloroform and methanol (2:1, vol/vol), and the lipid in chloroform was dried under a stream of oxygen-free nitrogen^27. The dried lipid was redissolved in 1.5 ml of spectrophotometric grade cyclohexane. Absorbance from 220 to 275 nm was recorded against a cyclohexane blank on a Lambda 2 UV/is Spectrometer (Perkin-Elmer Corp., Norwalk, Conn.). Lipid concentration was approximately 0.5 mg/mi of cyclohexane. After the UV measurements, a 250 μl aliquot from each sample was analyzed for total lipid content by the method of Chiang et al.^37, and absorbance measurements were normalized to a denominator of 1.0 mg lipid per ml of cyclohexane. Lipid peroxidation was estimated by calculating the difference in absorption at 233 nm (the peak absorbance for conjugated dienes) between each rat and the mean of the values from control rats.
Because serum AST and ALT concentrations peaked at 4 hours, further evaluation of liver injury was performed at that time point Total concentrations (conjugated+free bile acids) of individual bile acids were measured in serum obtained at 4 hours by gas chromatography-mass spectroscopy (GC-MS), as previously described^30. Briefly, after serum samples were extracted with the addition of the internal standard 7-alpha, 12-alpha, dihydroxy-5 beta cholanic acid, trimethylsilyl esterification was performed. Individual bile acids were then quantified by GC or GC-MS using a Hewlett-Packard 5790 flame ionization detector equipped with a 30 meter DB-1 capillary column with internal diameter of 0.25 mm and a film thickness of 0.25 micrometers (J & W Scientific, Folsom, Calif.). For GC-MS measurements, a Hewlett-Packard 5970-A mass selective detector operating in selective ion monitoring mode was used. Results were expressed as μmol/L for each individual bile acid.
Rats were divided into two treatment groups. One group was pretreated with parenteral Vitamin E (all-rac-alpha tocopherol, Ephynal, Hoffmann-LaRoche,Nutley, N.J.). The other group was not pretreated. […]

A further data set concerns TCDC hepatic toxicity. It counts as in vivo, male Sprague-Dawley rats. An excerpt:
Young adult male Sprague-Dawley rats (150-180 gram weight) purchased from Sasco, Inc. (Omaha, Nebr.) were fed Purina Lab Chow (Ralston Purina Co., Chicago, Ill.) ad libitum for 2-3 weeks and housed in polyethylene cages with stainless steel tops on a 12-hour light-dark cycle. All rats received humane care in compliance with the guidelines of the Animal Use in Research Committee of the University of Colorado Health Sciences Center. […] TCDC is a conjugate of the bile acid most implicated in cholestatic liver injury9,11,12. TCDC was solubilized in 5% dextrose, 10% BSA, and 0.45% normal saline. TCDC was administered while rats were under light methoxyflurane anesthesia as an intravenous bolus of the desired dose in 1 to 2 minutes through the tail vein. TCDC dosing was performed between 7 and 9 am. […] Rats were divided into two treatment groups. One group was pretreated with parenteral Vitamin E (all-rac-alpha tocopherol, […], Hoffmann-LaRoche,Nutley, N.J.). The other group was not pretreated. These rats then received either vehicle or TCDC (10 μmol/[…]) by tail vein injection (as described in Example 1). […] All i.p. injections were administered under light methoxyflurane anesthesia. Following the vitamin E or saline injections, rats were randomly assigned to receive a tail vein bolus injection of either TCDC or vehicle. Rats were sacrificed four hours later and serum was analyzed for AST, ALT, total bilirubin and alkaline phosphatase. […] The serum alpha tocopherol:total lipids ratio (mg/gm) was calculated as an additional index of vitamin E status^41.

Another data set is described as follows: in vivo. As to conditions: rat. On the set-up: species or system male Sprague-Dawley rats. How it is done:
Rats were divided into two treatment groups. One group was pretreated with parenteral Vitamin E (all-rac-alpha tocopherol, […], Hoffmann-LaRoche,Nutley, N.J.). The other group was not pretreated. These rats then received either vehicle or TCDC (10 μmol/[…]) by tail vein injection (as described in Example 1). […] All i.p. injections were administered under light methoxyflurane anesthesia. Following the vitamin E or saline injections, rats were randomly assigned to receive a tail vein bolus injection of either TCDC or vehicle. Rats were sacrificed four hours later and serum was analyzed for AST, ALT, total bilirubin and alkaline phosphatase. […] The serum alpha tocopherol:total lipids ratio (mg/gm) was calculated as an additional index of vitamin E status^41. The liver was rapidly removed at sacrifice, the hepatic mitochondria were isolated as set forth above and analyzed for lipid-conjugated dienes as described above. A specimen of liver was also immediately frozen, protected from light and stored at -70° C. and subsequently analyzed for alpha tocopherol and reduced ubiquinol-9 by HPLC with electrochemical detection^42. The results were expressed as nmol alpha tocopherol or nmol reduced ubiquinol-9 per gram wet weight of liver.

Where [1] appears, read: parenteral vitamin E pretreatment, rats receiving TCDC.

Molecules are shown by their SMILES. Like-named read-outs stand apart in the source and are kept apart here.

As to `C[C@H](CCC(=O)O)[C@H]1CC[C@H]2[C@@H]3[C@@H](O)C[C@@H]4C[C@H](O)CC[C@]4(C)[C@H]3CC[C@]12C` [ursodeoxycholic acid], the “Hepatoprotective and choleretic effects” value with cholestatic disorders is “hepatoprotective as well as choleretic effects”.
With `Cc1c(C)c2c(c(C)c1O)CCC(C)(CCCC(C)CCCC(C)CCCC(C)C)O2` (racemic) [Vitamin E, all-rac-alpha tocopherol], in the data set on hepatic mitochondria (Vitamin E/TCDC, n = 12), the Lipid-conjugated dienes is recorded as 0.13 ± 0.01 delta abs. 233 nm/mg lipid. In addition, the Lipid-conjugated dienes in the data set on hepatic mitochondria (Vitamin E/Vehicle, n = 7) is on record as -0.03 ± 0.02 delta abs. 233 nm/mg lipid. Also, the “Mitochondrial lipid-conjugated dienes, change” value in the data set on hepatic mitochondria (vitamin E pretreatment, i.v. TCDC group) was “significant reduction”. In the data set on TCDC hepatic toxicity (Vitamin E/TCDC, n = 12, 4 h), the ALT is on record as 325 ± 78 IU/L, the AST is reported as 870 ± 278 IU/L and the Bilirubin amounted to 0.2 ± 0.02 mg/dL. Also, in the data set with TCDC hepatic toxicity (setting [1]), the “Decrease in serum ALT” value is “approximately 70%” and the “Decrease in serum AST” value is on record as “approximately 70%”. In the data set with TCDC hepatic toxicity (rat, in vivo), this compound registered an ALT of 61 ± 5 IU/L, an AST of 81 ± 2 IU/L and a Bilirubin of 0.2 ± 0.02 mg/dL. Besides, the “Hepatic injury and mitochondrial lipid peroxidation, overall result” value in the data set on TCDC hepatic toxicity (vitamin E pretreatment, TCDC) is “attenuated both the hepatic injury and the severity of mitochondrial lipid peroxidation”. For the same compound, in “in vivo”, the “Hepatic alpha tocopherol concentrations, change” value is reported as “significant increases”; the “Serum vitamin E concentrations, change” value was “significant increases”; the “Serum vitamin E:total lipid ratios, change” value was “significant increases”. Further, the Serum alpha tocopherol in “in vivo” (4 h) was 13.2 ± 0.7 µg/mL. The same compound showed a concentration at 4 h in “in vivo” (Serum alpha tocopherol) of 9900 ± 700 ng/mL.
